Experimental data taken from patent US20060154335A1, “Novel members of the steroid/thyroid superfamily and uses therefor” (The Salk Institute for Biological Studies, priority 1994, published 2006).
“Also recorded” adds a separate entry of the source.

Experiments:
PPARα [1] = molecular target: T1, PPARα (Mus musculus, UniProt P23204); assay: Cotransfection assay in CV-1 cells, PPRE3-TK-LUC reporter, CMX-PPARα; type: cell-based; conditions: 5 μM Wy 14,643, 30 μM linoleic acid, 30 μM LY-171883
T1 construct: constructed by inserting the cDNA inserts of PPARα, PPARγ, and PPARδ into pCMX; expressed in transfected cells; host or cells: CV-1 cells
T1 sequence (P23204 1-468): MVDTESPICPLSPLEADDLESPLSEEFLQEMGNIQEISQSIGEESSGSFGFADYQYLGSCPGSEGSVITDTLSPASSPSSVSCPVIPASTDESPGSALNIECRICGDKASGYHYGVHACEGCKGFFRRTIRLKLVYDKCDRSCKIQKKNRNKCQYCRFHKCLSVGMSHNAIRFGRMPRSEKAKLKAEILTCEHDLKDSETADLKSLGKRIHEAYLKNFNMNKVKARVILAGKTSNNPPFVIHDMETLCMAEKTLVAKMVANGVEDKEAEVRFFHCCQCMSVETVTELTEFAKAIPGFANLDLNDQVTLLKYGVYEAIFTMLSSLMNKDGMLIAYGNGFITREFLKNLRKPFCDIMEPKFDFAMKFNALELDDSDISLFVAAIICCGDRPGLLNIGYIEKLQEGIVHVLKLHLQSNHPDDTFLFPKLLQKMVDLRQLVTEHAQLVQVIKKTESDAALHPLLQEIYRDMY
Excerpt: (§1) Luciferase activities are presented as the fold activation achieved in compound-treated versus mock-treated cells. Similar results were obtained in triplicate in three independent experiments.
(§2) The mammalian expression vectors pCMX-PPARα, pCMX-PPARγ and pCMX-PPARδ were constructed by inserting the cDNA inserts of PPARα, PPARγ, and PPARδ into pCMX as previously described by Umesono et al., in Cell 65:1255-1266 (1991)). Construction of the reporter PPRE3-TK-LUC has also been previously described by Kliewer et al., (1992) supra. Cotransfection assays in CV-1 cells were done in 48 well plates using N-[1-(2,3-dioleoyloxy)-propyl [N,N,N-trimethyl ammonium methyl sulfate (DOTAP) according to the manufacturer's instructions (Boehringer Mannheim). Transfections contained 10 ng of receptor expression plasmid vector, 20 ng of the reporter PPRE3-TK-LUC, 60 ng of pCMX-βGAL (β-galactosidase) as an internal control, and 210 ng of carrier plasmid pGEM. Cells were incubated in the presence of DOTAP for 8 hours, washed, and incubated in the presence of peroxisome proliferators or fatty acids for 36 hours. Cell extracts were prepared and assayed for luciferase and β-galactosidase activity as previously described (Umesono, supra). All experimental points were done in triplicate.

PPARδ = molecular target: T2, PPARδ (Mus musculus, UniProt P35396, A150G/E149D); assay: Cotransfection assay in CV-1 cells, PPRE3-TK-LUC reporter, CMX-PPARδ; type: cell-based; conditions: 5 μM Wy 14,643, 30 μM linoleic acid, 30 μM LY-171883
T2 construct: The second clone encodes a 440-amino acid protein; expressed in transfected cells; host or cells: CV-1 cells
T2 sequence (P35396 1-440 E149D/A150G): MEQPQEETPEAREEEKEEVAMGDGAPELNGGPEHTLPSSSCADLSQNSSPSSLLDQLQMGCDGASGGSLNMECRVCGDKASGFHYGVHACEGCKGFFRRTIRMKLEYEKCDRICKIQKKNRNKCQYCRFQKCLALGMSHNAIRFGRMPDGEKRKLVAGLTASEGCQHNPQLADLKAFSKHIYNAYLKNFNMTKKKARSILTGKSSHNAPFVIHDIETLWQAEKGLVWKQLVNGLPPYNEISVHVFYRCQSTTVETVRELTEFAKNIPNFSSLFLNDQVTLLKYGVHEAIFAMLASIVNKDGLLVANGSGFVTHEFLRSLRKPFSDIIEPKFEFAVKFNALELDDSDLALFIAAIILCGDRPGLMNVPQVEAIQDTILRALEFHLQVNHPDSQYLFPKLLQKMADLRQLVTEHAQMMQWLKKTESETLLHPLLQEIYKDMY
Excerpt: as §2

PPARγ = molecular target: T3, PPARγ (Mus musculus, UniProt P37238, N383S); assay: Cotransfection assay in CV-1 cells, PPRE3-TK-LUC reporter, CMX-PPARγ; type: cell-based; conditions: 5 μM Wy 14,643, 30 μM linoleic acid, 30 μM LY-171883
T3 construct: The first clone encodes a 475-amino acid protein; expressed in transfected cells; host or cells: CV-1 cells
T3 sequence (P37238 31-505 N383S): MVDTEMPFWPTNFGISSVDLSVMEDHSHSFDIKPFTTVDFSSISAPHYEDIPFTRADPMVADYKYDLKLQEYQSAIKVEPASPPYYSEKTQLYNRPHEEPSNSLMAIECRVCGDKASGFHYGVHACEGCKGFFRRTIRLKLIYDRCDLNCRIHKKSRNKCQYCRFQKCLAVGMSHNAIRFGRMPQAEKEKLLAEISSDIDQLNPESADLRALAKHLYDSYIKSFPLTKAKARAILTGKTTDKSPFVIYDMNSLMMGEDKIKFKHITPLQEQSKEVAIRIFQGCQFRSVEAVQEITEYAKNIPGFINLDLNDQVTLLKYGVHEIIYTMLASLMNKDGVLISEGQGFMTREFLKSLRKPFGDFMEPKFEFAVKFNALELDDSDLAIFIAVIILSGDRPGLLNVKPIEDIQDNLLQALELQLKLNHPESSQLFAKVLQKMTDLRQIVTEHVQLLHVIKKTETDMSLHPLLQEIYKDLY
Excerpt: as §1, §2

PPARα [2] = assay: cell_activity; conditions: 5 uM Wy 14,643, CV-1 cells, luciferase reporter

## CCCc1c(OCCCCc2nnn[nH]2)ccc(C(C)=O)c1O [LY-171883]
PPARα [1]
  activation of PPARα (reporter expression): strong activators
PPARδ
  activation of PPARδ (reporter expression): not activated
PPARγ
  activation of PPARγ (reporter expression): significant activation; also recorded: most efficiently activated

## Cc1cccc(Nc2cc(Cl)nc(SCC(=O)O)n2)c1C [Wy 14,643]
PPARα [1]
  activation of PPARα (reporter expression): most efficiently activated
PPARγ
  activation of PPARγ (reporter expression): no activation; also recorded: fail to respond; also recorded: fails to activate

## CCCCC/C=C\C/C=C\CCCCCCCC(=O)O [linoleic acid]
PPARα [1]
  activation of PPARα (reporter expression): strong activators
PPARδ
  activation of PPARδ (reporter expression): activated; also recorded: most efficiently activated
PPARγ
  activation of PPARγ (reporter expression): no activation

## PPRE3-TK-LUC (three copies of AOX-PPRE)
PPARα [2]
  activity (fold activation): > 100
